Assay results reported in patent US20190142810A1, “MITOCHONDRIAL INHIBITORS FOR THE TREATMENT OF PROLIFERATION DISORDERS” (Basilea Pharmaceutica International AG, priority 2016, published 2019).

Columns and labels:
Type in all cases: cell-based
[1] = tested on: HeLa galactose cells; test: Cell growth and proliferation assay of HeLa galactose cells (crystal violet); conditions: Homo sapiens, HeLa, 72 h, 72 hours incubation, crystal violet staining, absorbance at 590 nm
Outline: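 HeLa cells adapted stepwise over three weeks to glucose-free galactose medium plus 10 mM galactose, seeded at 2000 cells/well and treated 72 h with compounds (0.001% DMSO) at 37° C. Growth read by crystal violet staining, dye solubilized and absorbance at 590 nm; IC50 from concentration-response curves.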

[2] = tested on: HeLa glucose versus HeLa galactose cells; test: Cell growth assays (crystal violet) in HeLa galactose and HeLa glucose cells; conditions: FIG. 1, crystal violet cell growth assay
Protocol: The cervical tumor cell line HeLa (ATCC, CCL-2) was cultivated in DMEM medium (Invitrogen cat. no. 11971, 4.5 g/L high glucose) containing 10% fetal calf serum (Sigma cat. no. F9665) and 1% Penicillin/Streptomycin (Sigma cat. no. P0781) at 37° C. in 5% CO2. HeLa galactose cells (i.e. HeLa cells that grow in high concentrations of galactose) were generated from HeLa glucose cells (i.e. HeLa cells that grow in high concentrations of glucose) by gradually changing the amount of glucose in the media to zero glucose in the presence of galactose as a sugar source (50% galactose/50% glucose media for one week, then 75% galactose/25% glucose media for one week, to 100% galactose media in the third week). Galactose media (Invitrogen cat. no. 11966) was supplemented with 10 mM galactose (Sigma cat. no. G5388).
Cell Growth and Proliferation Assay of HeLa Galactose and Glucose Cells
HeLa galactose cells and HeLa glucose cells were seeded in 96 well plates (TPP, cat. no 92696) at 2000 and 1500 cells/well, respectively, in 100 μL of complete medium. […] Absorbance at 590 nm was measured using a SpectraMax® 250 plate reader (Molecular Devices). Antiproliferative/growth inhibition IC50s were calculated from concentration-response curves using GraphPad Prism software. […]

[3] = tested on: Oxygen consumption (mitochondrial function); test: Oxygen consumption assay (MitoXpress probe); conditions: 5 h, MitoXpress probe signal, kinetic analysis at 37° C. for 5 hours, compared to untreated cells
Outline: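 Cells seeded at 50′000/well, after 24 h given fresh media with inhibitor at a range of concentrations, then MitoXpress probe under mineral oil. Kinetic TRF read (380 nm excitation, 650 or 665 nm emission) at 37° C. for 5 hours. IC50 = concentration inhibiting 50% of probe signal versus untreated cells.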

| Compound | IC50 [1] [nM] | differential sensitivity in HeLa glucose versus HeLa galactose cell growth [2] | IC50 [3] [nM] |
| --- | --- | --- | --- |
| Cc1nsc(NC(=O)N2CCC(=Cc3c(F)cc(C(F)(F)F)cc3F)CC2)n1 [Example 41, 4-[[2,6-difluoro-4-(trifluoromethyl)phenyl]methylene]-N-(3-methyl-1,2,4-thiadiazol-5-yl)piperidine-1-carboxamide] | 23 | exhibit differential sensitivity | 41 |
| Cc1cc(NC(=O)N2CCC(=Cc3c(F)cc(N(C)C)cc3F)CC2)sn1 [Example 148, 4-[[4-(dimethylamino)-2,6-difluoro-phenyl]methylene]-N-(3-methylisothiazol-5-yl)piperidine-1-carboxamide] | 9 |  | 16 |
| CCc1nsc(NC(=O)N2CCC(=Cc3c(F)cc(N(C)C)cc3F)CC2)n1 [Example 149, 4-[[4-(dimethylamino)-2,6-difluoro-phenyl]methylene]-N-(3-ethyl-1,2,4-thiadiazol-5-yl)piperidine-1-carboxamide] | 11 |  | 13 |
| Cc1cc(NC(=O)N2CCC(Cc3c(F)cc(N(C)C)cc3F)CC2)sn1 [Example 151, 4-[[4-(dimethylamino)-2,6-difluoro-phenyl]methyl]-N-(3-methylisothiazol-5-yl)piperidine-1-carboxamide] | 20 |  | 42 |
| CCc1nsc(NC(=O)N2CCC(Cc3c(F)cc(N(C)C)cc3F)CC2)n1 [Example 152, 4-[[4-(dimethylamino)-2,6-difluoro-phenyl]methyl]-N-(3-ethyl-1,2,4-thiadiazol-5-yl)piperidine-1-carboxamide] | 19 |  | 39 |
| Cc1cc(NC(=O)N2CCC(Cc3c(F)cc(N(C)C)cc3F)CC2)ccn1 [Example 153] | 34 |  | 119 |
| Cc1cc(NC(=O)N2CCC(=Cc3c(F)cc(N(C)C)cc3F)CC2)ccn1 [Example 154] | 37 |  | 192 |
| Cc1nsc(NC(=O)N2CCC(=Cc3c(F)cc(N(C)C4CCOC4)cc3F)CC2)n1 (stereo not drawn) [Example 157] | 51 |  | 109 |
| Antimycin A |  | differential sensitivity in HeLa glucose versus HeLa galactose cell growth is exhibited |  |

Now from value to compound, other results behind:

| IC50 [1] [nM] | Compound | differential sensitivity in HeLa glucose versus HeLa galactose cell growth [2] | IC50 [3] [nM] |
| --- | --- | --- | --- |
| 28 | Cc1nsc(NC(=O)N2CCC(=Cc3c(F)cc(N(C)CCO)cc3F)CC2)n1 [Example 158, 4-[[2,6-difluoro-4-[2-hydroxyethyl(methyl)amino]phenyl]methylene]-N-(3-methyl-1,2,4-thiadiazol-5-yl)piperidine-1-carboxamide] |  | 40 |
| 21 | COC1CN(Cc2ccc(Cl)cc2F)CCN(C(=O)Nc2nc(C)ns2)C1 (stereo not drawn) [Example 160, 4-[(4-chloro-2-fluoro-phenyl)methyl]-6-methoxy-N-(3-methyl-1,2,4-thiadiazol-5-yl)-1,4-diazepane-1-carboxamide] |  | 65 |
| 50 | Cc1nsc(NC(=O)N2CCC(=Cc3c(F)cc(N(C)CC4CN(C)C4)cc3F)CC2)n1 [Example 161] |  | 159 |
| 19 | Cc1nsc(NC(=O)N2CCC(=Cc3c(F)cc(N(C)CC#N)cc3F)CC2)n1 [Example 164, 4-[[4-[cyanomethyl(methyl)amino]-2,6-difluoro-phenyl]methylene]-N-(3-methyl-1,2,4-thiadiazol-5-yl)piperidine-1-carboxamide] |  | 16 |
| 54 | Cc1cc(NC(=O)N2CCC(C(=O)c3c(F)cc(C(F)(F)F)cc3F)CC2)ccn1 [Example 173] |  | 136 |
| 54 | COCc1cc(NC(=O)N2CCC(=Cc3ccc(Cl)cc3F)CC2)ccn1 [Example 176] |  | 133 |
| 11 | CCc1cc(NC(=O)N2CCC(=Cc3c(F)cc(C#N)cc3F)CC2)ccn1 [Example 179, 4-[(4-cyano-2,6-difluoro-phenyl)methylene]-N-(2-ethyl-4-pyridyl)piperidine-1-carboxamide] |  | 41 |
| 13 | N#Cc1cc(F)c(C=C2CCN(C(=O)Nc3ccnc(C4CC4)c3)CC2)c(F)c1 [Example 182, 4-[(4-cyano-2,6-difluoro-phenyl)methylene]-N-(2-cyclopropyl-4-pyridyl)piperidine-1-carboxamide] |  | 108 |
| 21 | O=C(Nc1ccnc(C2CC2)c1)N1CCC(=Cc2ccc(Cl)cc2F)CC1 [Example 183, 4-[(4-chloro-2-fluoro-phenyl)methylene]-N-(2-cyclopropyl-4-pyridyl)piperidine-1-carboxamide] |  | 42 |
